Assay results as given in PMC10237672, “Design and synthesis of novel anti-urease imidazothiazole derivatives with promising antibacterial activity against Helicobacter pylori” (PLOS ONE, 2023).
In brackets after ≈: the same amount, converted by molar mass. Where a name gives a salt, the structure may show the parent alone. Read-outs that look alike come from different tables or passages of the source.

Legend:
Caco-2 A-B permeability = type: in vitro ADME; details: human, pH 6.5–7.4, test concentration = MIC against H. pylori (19-50 μM), reference drugs 10 μM
Procedure: The apparent permeability coefficient (Papp) of the test compound was calculated as follows: Papp(cm/s)=VR*CR,end/Δt*1/A*(CD,mid‐CR,mid) where VR is the volume of the receiver chamber. CR,end is the concentration of the test compound in the receiver chamber at the end time point, Δt is the incubation time and A is the surface area of the cell monolayer. CD,mid is the calculated mid-point concentration of the test compound in the donor side, which is the mean value of the donor concentration at time 0 minute and the donor concentration at the end time point. CR,mid is the mid-point concentration of the test compound in the receiver side, which is one half of the receiver concentration at the end time point. Concentrations of the test compound were expressed as peak areas of the test compound.
The recovery of the test compound was calculated as follows: Recovery(%)=VD*CD,end+VR*CR,end/VD*CD0*100 where VD and VR are the volumes of the donor and receiver chambers, respectively. CD,end is the concentration of the test compound in the donor sample at the end time point. CR,end is the concentration of the test compound in the receiver sample at the end time point. CD0 is the concentration of the test compound in the donor sample at time zero. Concentrations of the test compound are expressed as peak areas of the test compound.
Fluorescein was used as the cell monolayer integrity marker. Fluorescein permeability assessment (in the A-B direction at pH 7.4 on both sides) was executed after the permeability assay for the test compound.

Jack bean urease = molecular target: T1, Jack bean urease (Canavalia ensiformis, UniProt P07374); assay: biochemical; type: biochemical
T1 construct: purchased Sigma Aldrich
T1 sequence (P07374 whole entry, looked up): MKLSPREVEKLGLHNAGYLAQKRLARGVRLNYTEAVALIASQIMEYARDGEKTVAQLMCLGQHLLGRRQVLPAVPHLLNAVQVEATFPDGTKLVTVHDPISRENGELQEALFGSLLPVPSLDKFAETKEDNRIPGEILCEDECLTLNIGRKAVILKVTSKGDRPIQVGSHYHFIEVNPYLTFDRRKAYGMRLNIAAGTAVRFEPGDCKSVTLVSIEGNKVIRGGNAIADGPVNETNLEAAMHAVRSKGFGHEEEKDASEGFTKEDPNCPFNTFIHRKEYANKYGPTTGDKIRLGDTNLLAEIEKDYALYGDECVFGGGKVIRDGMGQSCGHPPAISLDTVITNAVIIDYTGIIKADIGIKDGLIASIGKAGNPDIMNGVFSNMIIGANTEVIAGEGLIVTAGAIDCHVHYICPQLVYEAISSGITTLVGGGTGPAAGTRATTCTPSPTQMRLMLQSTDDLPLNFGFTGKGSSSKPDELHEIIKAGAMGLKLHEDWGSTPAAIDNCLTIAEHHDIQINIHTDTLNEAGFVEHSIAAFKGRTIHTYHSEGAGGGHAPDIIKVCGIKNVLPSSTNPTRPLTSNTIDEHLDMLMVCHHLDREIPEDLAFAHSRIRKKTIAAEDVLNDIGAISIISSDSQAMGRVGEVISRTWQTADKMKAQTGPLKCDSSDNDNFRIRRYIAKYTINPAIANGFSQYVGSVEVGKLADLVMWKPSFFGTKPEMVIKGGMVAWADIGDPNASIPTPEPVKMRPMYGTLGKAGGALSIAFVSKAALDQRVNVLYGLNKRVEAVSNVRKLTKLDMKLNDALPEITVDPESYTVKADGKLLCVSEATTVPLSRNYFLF
Procedure: Reaction mixture comprising 40 μL of buffer (K2HPO4: 10 mmol/L, urea: 100 mmol/L, […]: 10 mmol/L, EDTA: 1 /L mmol, pH = 8.2) and 5 U/mL enzyme (10 μL) were pre-incubated with 10 μL of synthesized compounds (1 mM) and substrate urea (1 mM) were incubated at room temperature in 96 well plate for half an hour. After the incubation at room temperature, absorbance was taken at specific wavelength (630 nm) employing a microplate reader (Bio-Tek, USA) with R1 and R2 reagents in each well. The reactions were measured in triplicate fashion. To calculate the inhibition percentage following equation was used.
Percentage inhibition = 100 –[tested compound/control compound] × 100.

H. pylori [1] = assay: IC50 against H. pylori, micro broth dilution test; type: cell-based, Helicobacter pylori; details: Helicobacter pylori, ATCC43504; H. pylori ATCC 43504, micro broth dilution, 72 h, OD 600 nm; read-out: IC50 value against H. pylori ± SEM
H. pylori [2] = assay: MIC against H. pylori, agar dilution method; type: cell-based, Helicobacter pylori; details: Helicobacter pylori, ATCC43504; H. pylori ATCC 43504, agar dilution; read-out: MIC value against H. pylori ± SEM

Compound | Papp (Caco-2 A-B permeability) | recovery (Caco-2 A-B permeability) | IC50 (Jack bean urease) | melting point | IC50 (H. pylori [1]) | MIC (H. pylori [2]) | IC50 (Jack bean urease; indophenol method, triplicate, thiourea positive control, read-out: Potency against urease IC50 ± SEM)
CC(CCc1ccccc1)NCC(O)c1ccc(O)c(C(N)=O)c1 (centres unmarked) [Labetalol, reference compound] | 19.2 ± 0.56 ×10⁻⁶ cm/s | 99.1% |  |  |  |  | 
CNS(=O)(=O)Oc1cccc(-c2nc3sccn3c2-c2cccc(S(C)(=O)=O)c2)c1 [Compound 2i, 3-(5-(3-(Methylsulfonyl)phenyl)imidazo[2,1-b]thiazol-6-yl)phenyl methylsulfamate] |  |  | 4.74 ± 0.21 µM | > 250 °C | 123 ± 15 µM | 250 ± 50 µM (≈ 116 µg/mL) | 
CCCS(=O)(=O)Oc1cccc(-c2nc3sccn3c2-c2ccccc2)c1 [Compound 1c, 3-(5-Phenylimidazo[2,1-b]thiazol-6-yl)phenyl propane-1-sulfonate] |  |  | 4.04 ± 0.09 µM | 120 to 123 °C | 364 µM | 800 µM (≈ 319 µg/mL) | 
O=S(=O)(Oc1cccc(-c2nc3sccn3c2-c2ccccc2)c1)c1ccccc1 [Compound 1e, 3-(5-Phenylimidazo[2,1-b]thiazol-6-yl)phenyl benzenesulfonate] |  |  | 4.3 ± 0.01 µM |  | 153 ± 33 µM | 400 µM | 
O=S(=O)(Oc1cccc(-c2nc3sccn3c2-c2ccccc2)c1)N1CCCCC1 [Compound 1j, 3-(5-Phenylimidazo[2,1-b]thiazol-6-yl)phenyl piperidine-1-sulfonate] |  |  | 6.97 ± 0.09 µM | 112 to 115 °C | 131 ± 2 µM | 200 µM (≈ 87.9 µg/mL) | 
O=S(=O)(Oc1cccc(-c2nc3sccn3c2-c2ccccc2)c1)c1ccc(F)cc1 (as salt: benzenesulfonate) [Compound 1f, 3-(5-Phenylimidazo[2,1-b]thiazol-6-yl)phenyl 4-fluorobenzenesulfonate] |  |  |  | 109 to 111 °C |  |  | 
Cc1ccc(S(=O)(=O)Oc2cccc(-c3nc4sccn4c3-c3cccc(S(C)(=O)=O)c3)c2)cc1 [Compound 2g, 3-(5-(3-(Methylsulfonyl)phenyl)imidazo[2,1-b]thiazol-6-yl)phenyl 4-methylbenzenesulfonate] |  |  | 5.59 ± 0.04 µM | 172 to 174 °C | 103 ± 88 µM | 275 ± 125 µM (≈ 144 µg/mL) | 
O=S(=O)(Oc1cccc(-c2nc3sccn3c2-c2ccccc2)c1)c1ccccc1 (as salt: benzenesulfonate) [Compound 1e, 3-(5-Phenylimidazo[2,1-b]thiazol-6-yl)phenyl benzenesulfonate] |  |  |  | 119 to 122 °C |  |  | 
CNS(=O)(=O)Oc1cccc(-c2nc3sccn3c2-c2ccccc2)c1 [Compound 1i, 3-(5-Phenylimidazo[2,1-b]thiazol-6-yl)phenyl methylsulfamate] |  |  | 5.51 ± 0.17 µM | 161 to 164 °C | 285 ± 92 µM | 800 µM (≈ 308 µg/mL) | 
CC(C)NCC(O)COc1cccc2ccccc12 (centres unmarked) [Propranolol, reference compound] | 39 ± 0.44 ×10⁻⁶ cm/s | 88.7% |  |  |  |  | 
CS(=O)(=O)Oc1cccc(-c2nc3sccn3c2-c2cccc(S(C)(=O)=O)c2)c1 [Compound 2a, 3-(5-(3-(Methylsulfonyl)phenyl)imidazo[2,1-b]thiazol-6-yl)phenyl methanesulfonate] |  |  | 5.01 ± 0.03 µM | 159 to 160 °C | 118 ± 5 µM | 250 ± 50 µM | 
O=S(=O)(Oc1cccc(-c2nc3sccn3c2-c2ccccc2)c1)c1ccc(F)cc1 [Compound 1f, 3-(5-Phenylimidazo[2,1-b]thiazol-6-yl)phenyl 4-fluorobenzenesulfonate] |  |  | 5.17 ± 0.01 µM |  | 147 µM | 200 µM (≈ 90.1 µg/mL) | 
CCS(=O)(=O)Oc1cccc(-c2nc3sccn3c2-c2cccc(S(C)(=O)=O)c2)c1 [Compound 2b, 3-(5-(3-(Methylsulfonyl)phenyl)imidazo[2,1-b]thiazol-6-yl)phenyl ethanesulfonate] |  |  | 4.97 ± 0.11 µM | 206 to 209 °C | 255 ± 35 µM | 800 µM | 
CS(=O)(=O)c1cccc(-c2c(-c3cccc(OS(=O)(=O)c4ccccc4)c3)nc3sccn23)c1 (as salt: benzenesulfonate) [Compound 2e, 3-(5-(3-(Methylsulfonyl)phenyl)imidazo[2,1-b]thiazol-6-yl)phenyl benzenesulfonate] |  |  |  | 193 to 195 °C |  |  | 
NC(N)=S [thiourea, reference compound] |  |  |  |  |  |  | 22.3 ± 0.031 µM
CS(=O)(=O)c1cccc(-c2c(-c3cccc(OS(=O)(=O)N4CCCCC4)c3)nc3sccn23)c1 [Compound 2j, 3-(5-(3-(Methylsulfonyl)phenyl)imidazo[2,1-b]thiazol-6-yl)phenyl piperidine-1-sulfonate] |  |  | 5.82 ± 0.02 µM | 76 to 79 °C | 288 ± 18 µM | 800 µM (≈ 414 µg/mL) | 
CS(=O)(=O)c1cccc(-c2c(-c3cccc(OS(=O)(=O)c4ccccc4)c3)nc3sccn23)c1 [Compound 2e, 3-(5-(3-(Methylsulfonyl)phenyl)imidazo[2,1-b]thiazol-6-yl)phenyl benzenesulfonate] |  |  | 5.21 ± 0.03 µM |  | 331 ± 21 µM | 409 ± 391 µM | 
Cc1ccc(S(=O)(=O)Oc2cccc(-c3nc4sccn4c3-c3ccccc3)c2)cc1 [Compound 1g, 3-(5-Phenylimidazo[2,1-b]thiazol-6-yl)phenyl 4-methylbenzenesulfonate] |  |  | 3.22 ± 0.06 µM | 103 to 106 °C | 37 ± 6 µM | 150 ± 29 µM (≈ 67 µg/mL) | 
CCS(=O)(=O)Oc1cccc(-c2nc3sccn3c2-c2ccccc2)c1 [Compound 1b, 3-(5-Phenylimidazo[2,1-b]thiazol-6-yl)phenyl ethanesulfonate] |  |  | 4.01 ± 0.11 µM | 119 to 121 °C | 82 ± 29 µM | 800 µM | 
CS(=O)(=O)c1cccc(-c2c(-c3cccc(OS(=O)(=O)c4ccc(F)cc4)c3)nc3sccn23)c1 (as salt: benzenesulfonate) [Compound 2f, 3-(5-(3-(Methylsulfonyl)phenyl)imidazo[2,1-b]thiazol-6-yl)phenyl 4-fluorobenzenesulfonate] |  |  |  | 103 to 105 °C |  |  | 
CS(=O)(=O)c1cccc(-c2c(-c3cccc(OS(N)(=O)=O)c3)nc3sccn23)c1 [Compound 2h, 3-(5-(3-(Methylsulfonyl)phenyl)imidazo[2,1-b]thiazol-6-yl)phenyl sulfamate] |  |  | 4.72 ± 0.13 µM | 150 to 153 °C | 225 ± 5 µM | 400 µM (≈ 180 µg/mL) | 
